In patent EP4682145A1, “BENZOHETEROCYCLIC COMPOUND, AND PREPARATION METHOD THEREFOR AND USE THEREOF” (Cascade Pharmaceuticals, Inc., priority 2023, dated 2024):

Biological target: T1, human FFAR1 (GPR40) (Homo sapiens, UniProt O14842)
T1 construct: Flag; expressed in transfected cells; host or cells: HEK293T
Test: NFAT-RE-based reporter gene activity assay (Dual-Glo luciferase) for GPR40 agonistic activity in co-transfected HEK293T cells
Format: cell-based
Conditions: 4-hour treatment; for Efficacy (%): class symbols
In short: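 Agonism read as NFAT-RE-driven firefly luciferase over Renilla control (Dual-Glo) after 4 h compound exposure, top concentration 1 µM, 10 half-log steps.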

T1 sequence (O14842 whole entry): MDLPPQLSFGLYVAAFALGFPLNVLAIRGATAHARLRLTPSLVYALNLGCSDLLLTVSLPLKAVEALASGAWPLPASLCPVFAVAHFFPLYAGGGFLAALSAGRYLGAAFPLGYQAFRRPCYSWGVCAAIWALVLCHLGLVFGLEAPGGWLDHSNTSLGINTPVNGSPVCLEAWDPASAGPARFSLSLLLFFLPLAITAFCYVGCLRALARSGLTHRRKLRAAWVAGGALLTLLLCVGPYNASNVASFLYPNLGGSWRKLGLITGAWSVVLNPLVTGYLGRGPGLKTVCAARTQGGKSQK

Structure (SMILES)	EC50 [nM]	Efficacy (%)
COc1cccc(N2CCC(c3oc4cc([C@@H](CC(=O)O)C5CC5)ccc4c3C(O)C(C)(C)C)CC2)c1 (some centres unmarked) [Compound 423]	100 to 500	† (100 ≥ Efficacy (%) > 50)
COc1cccc(N2CCC(c3oc4cc([C@@H](CC(=O)O)C5CC5)ccc4c3C(O)c3ccccc3)CC2)c1 (some centres unmarked) [Compound 424]	> 500	†† (150 ≥ Efficacy (%) > 100)
COc1cccc(N2CCC(c3oc4cc([C@@H](CC(=O)O)C5CC5)ccc4c3C(OC)c3ccccc3)CC2)c1 (some centres unmarked) [Compound 425]	100 to 500	†† (150 ≥ Efficacy (%) > 100)
COc1cccc(N2CCC(c3oc4cc([C@@H](CC(=O)O)C5CC5)ccc4c3C(OCC(C)C)c3ccccc3)CC2)c1 (some centres unmarked) [Compound 426]	10 to 100	††† (Efficacy (%) > 150)
COc1cccc(N2CCC(c3oc4cc([C@@H](CC(=O)O)C5CC5)ccc4c3C(OCC(C)C)c3ccc(C)cc3)CC2)c1 (some centres unmarked) [Compound 427]	100 to 500	††† (Efficacy (%) > 150)
COc1cccc(N2CCC(c3oc4cc([C@@H](CC(=O)O)C5CC5)ccc4c3C(OCC(C)C)c3cccc(C)c3)CC2)c1 (some centres unmarked) [Compound 428]	100 to 500	†† (150 ≥ Efficacy (%) > 100)
COc1cccc(N2CCC(c3oc4cc([C@@H](CC(=O)O)C5CC5)ccc4c3C(OCC(C)C)c3ccccc3C)CC2)c1 (some centres unmarked) [Compound 429]	100 to 500	††† (Efficacy (%) > 150)
COc1cccc(N2CCC(c3oc4cc([C@@H](CC(=O)O)C5CC5)ccc4c3C(OCC(C)C)c3cccc(F)c3)CC2)c1 (some centres unmarked) [Compound 430]	100 to 500	††† (Efficacy (%) > 150)
COc1cccc(N2CCC(c3oc4cc([C@@H](CC(=O)O)C5CC5)ccc4c3C(OCC(C)C)c3ccc(F)cc3)CC2)c1 (some centres unmarked) [Compound 431]	100 to 500	†† (150 ≥ Efficacy (%) > 100)
COc1cccc(N2CCC(c3oc4cc([C@@H](CC(=O)O)C5CC5)ccc4c3C(OCC(C)C)c3ccccc3F)CC2)c1 (some centres unmarked) [Compound 432]	10 to 100	††† (Efficacy (%) > 150)
COc1cccc(N2CCC(c3oc4cc([C@@H](CC(=O)O)C5CC5)ccc4c3CNCC(C)(C)C)CC2)c1 [Compound 435]	10 to 100	†† (150 ≥ Efficacy (%) > 100)
COc1cccc(N2CCC(c3oc4cc([C@@H](CC(=O)O)C5CC5)ccc4c3CNC(=O)C(C)(C)C)CC2)c1 [Compound 436]	> 500	†† (150 ≥ Efficacy (%) > 100)
COc1cccc(N2CCC(c3oc4cc([C@@H](CC(=O)O)C5CC5)ccc4c3CN(C)CC(C)(C)C)CC2)c1 [Compound 438]	10 to 100	†† (150 ≥ Efficacy (%) > 100)
COc1cccc(N2CCC(c3oc4cc([C@@H](CC(=O)O)C5CC5)ccc4c3C(C)N(C)CC(C)(C)C)CC2)c1 (some centres unmarked) [Compound 439]	100 to 500	†† (150 ≥ Efficacy (%) > 100)
COc1cccc(N2CCC(c3oc4cc([C@@H](CC(=O)O)C5CC5)ccc4c3CN(CC(C)(C)C)C(C)=O)CC2)c1 [Compound 442]	100 to 500	†† (150 ≥ Efficacy (%) > 100)
COc1cccc(N2CCC(c3oc4cc([C@@H](CC(=O)O)C5CC5)ccc4c3CN(CC(C)(C)C)c3cccc(Cl)c3)CC2)c1 [Compound 447]	100 to 500	†† (150 ≥ Efficacy (%) > 100)
COc1cccc(N2CCC(c3oc4cc([C@@H](CC(=O)O)C5CC5)ccc4c3CN(C(=O)C(C)(C)C)c3cccc(Cl)c3)CC2)c1 [Compound 448]	100 to 500	†† (150 ≥ Efficacy (%) > 100)
COc1cccc(N2CCC(c3oc4cc(C(CC(=O)O)C5CC5)ccc4c3Cc3nnc(C(C)(C)C)o3)CC2)c1 (centres unmarked) [Compound 450]	100 to 500	† (100 ≥ Efficacy (%) > 50)
CCCCCCCC(C)(C)c1nnc(-c2c(C3CCN(c4cccc(OC)c4)CC3)oc3cc(C(CC(=O)O)C4CC4)ccc23)o1 (centres unmarked) [Compound 451]	10 to 100	†† (150 ≥ Efficacy (%) > 100)
